Measurements: US9284304B2, “Substituted pyrimidines as toll-like receptor modulators” (JANSSEN SCIENCES IRELAND UC, priority 2012, dated 2016)

Tests used:
[1] = molecular target: T1, human TLR8 (hTLR8) (Homo sapiens, UniProt Q9NR97); experiment: TLR8 cellular NFκB-luc reporter assay in transiently transfected HEK293 cells; type: cell-based; set-up: unit not given here; details: lowest effective concentration, wild type TLR8, 48 hours incubation
T1 construct: expressed in transfected cells; host or cells: HEK293
T1 sequence (Q9NR97 27-1041): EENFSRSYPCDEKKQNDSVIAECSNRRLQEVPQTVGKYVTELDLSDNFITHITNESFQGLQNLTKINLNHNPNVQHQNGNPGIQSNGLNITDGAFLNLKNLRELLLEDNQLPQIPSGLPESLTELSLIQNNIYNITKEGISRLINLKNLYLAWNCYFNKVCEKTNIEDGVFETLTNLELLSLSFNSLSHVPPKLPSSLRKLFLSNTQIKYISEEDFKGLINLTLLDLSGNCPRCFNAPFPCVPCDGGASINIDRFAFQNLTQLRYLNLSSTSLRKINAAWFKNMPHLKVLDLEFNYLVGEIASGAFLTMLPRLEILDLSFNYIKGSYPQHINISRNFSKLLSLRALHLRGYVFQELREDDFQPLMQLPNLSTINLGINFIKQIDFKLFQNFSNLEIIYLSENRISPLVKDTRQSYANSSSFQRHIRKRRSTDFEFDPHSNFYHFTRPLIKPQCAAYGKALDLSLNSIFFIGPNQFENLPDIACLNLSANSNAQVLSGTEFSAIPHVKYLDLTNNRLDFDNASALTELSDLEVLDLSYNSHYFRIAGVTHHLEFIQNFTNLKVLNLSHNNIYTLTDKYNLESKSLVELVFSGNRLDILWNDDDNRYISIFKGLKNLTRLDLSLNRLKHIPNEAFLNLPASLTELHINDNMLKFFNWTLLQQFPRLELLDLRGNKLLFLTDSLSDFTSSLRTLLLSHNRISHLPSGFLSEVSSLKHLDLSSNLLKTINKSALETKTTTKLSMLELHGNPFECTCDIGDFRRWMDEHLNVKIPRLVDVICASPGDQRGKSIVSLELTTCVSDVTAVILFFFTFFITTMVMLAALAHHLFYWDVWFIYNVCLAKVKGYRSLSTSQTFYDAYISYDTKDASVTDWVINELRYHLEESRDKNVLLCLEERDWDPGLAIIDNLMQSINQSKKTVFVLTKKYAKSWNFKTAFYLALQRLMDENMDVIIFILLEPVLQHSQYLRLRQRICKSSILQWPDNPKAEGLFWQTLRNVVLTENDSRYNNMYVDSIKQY
Method: (§1) The ability of compounds to activate human TLR7 (hTLR7) and/or TLR8 (hTLR8) was assessed in a cellular reporter assay using HEK293 cells transiently transfected with a TLR7 or TLR8 expression vector and NFκB-luc reporter construct. In one instance the TLR expression construct expresses the respective wild type sequence or a mutant sequence comprising a deletion in the second leucine-rich repeat of the TLR. […] Briefly, HEK293 cells were grown in culture medium (DMEM supplemented with 10% FCS and 2 mM Glutamine). For transfection of cells in 10 cm dishes, cells were detached with Trypsin-EDTA, transfected with a mix of CMV-TLR7 or TLR8 plasmid (750 ng), NFκB-luc plasmid (375 ng) and a transfection reagent and incubated overnight at 37° C. in a humidified 5% CO2 atmosphere. Transfected cells were then detached with Trypsin-EDTA, washed in PBS and resuspended in medium to a density of 1.67×10^5 cells/mL. Thirty microliters of cells were then dispensed into each well in 384-well plates, where 10 μL of compound in 4% DMSO was already present. Following 48 hours incubation at 37° C., 5% CO2, the luciferase activity was determined by adding 15 μl of Steady Lite Plus substrate (Perkin Elmer) to each well and readout performed on a ViewLux ultraHTS microplate imager (Perkin Elmer). Dose response curves were generated from measurements performed in quadruplicates. Lowest effective concentrations (LEC) values, defined as the concentration that induces an effect which is at least two fold above the standard deviation of the assay, were determined for each compound.

[2] = molecular target: T2, human TLR7 (hTLR7) (Homo sapiens, UniProt Q9NYK1); experiment: TLR7 cellular NFκB-luc reporter assay in transiently transfected HEK293 cells; type: cell-based; set-up: unit not given here; details: lowest effective concentration, wild type TLR7, 48 hours incubation
T2 construct: expressed in transfected cells; host or cells: HEK293
T2 sequence (Q9NYK1 27-1049): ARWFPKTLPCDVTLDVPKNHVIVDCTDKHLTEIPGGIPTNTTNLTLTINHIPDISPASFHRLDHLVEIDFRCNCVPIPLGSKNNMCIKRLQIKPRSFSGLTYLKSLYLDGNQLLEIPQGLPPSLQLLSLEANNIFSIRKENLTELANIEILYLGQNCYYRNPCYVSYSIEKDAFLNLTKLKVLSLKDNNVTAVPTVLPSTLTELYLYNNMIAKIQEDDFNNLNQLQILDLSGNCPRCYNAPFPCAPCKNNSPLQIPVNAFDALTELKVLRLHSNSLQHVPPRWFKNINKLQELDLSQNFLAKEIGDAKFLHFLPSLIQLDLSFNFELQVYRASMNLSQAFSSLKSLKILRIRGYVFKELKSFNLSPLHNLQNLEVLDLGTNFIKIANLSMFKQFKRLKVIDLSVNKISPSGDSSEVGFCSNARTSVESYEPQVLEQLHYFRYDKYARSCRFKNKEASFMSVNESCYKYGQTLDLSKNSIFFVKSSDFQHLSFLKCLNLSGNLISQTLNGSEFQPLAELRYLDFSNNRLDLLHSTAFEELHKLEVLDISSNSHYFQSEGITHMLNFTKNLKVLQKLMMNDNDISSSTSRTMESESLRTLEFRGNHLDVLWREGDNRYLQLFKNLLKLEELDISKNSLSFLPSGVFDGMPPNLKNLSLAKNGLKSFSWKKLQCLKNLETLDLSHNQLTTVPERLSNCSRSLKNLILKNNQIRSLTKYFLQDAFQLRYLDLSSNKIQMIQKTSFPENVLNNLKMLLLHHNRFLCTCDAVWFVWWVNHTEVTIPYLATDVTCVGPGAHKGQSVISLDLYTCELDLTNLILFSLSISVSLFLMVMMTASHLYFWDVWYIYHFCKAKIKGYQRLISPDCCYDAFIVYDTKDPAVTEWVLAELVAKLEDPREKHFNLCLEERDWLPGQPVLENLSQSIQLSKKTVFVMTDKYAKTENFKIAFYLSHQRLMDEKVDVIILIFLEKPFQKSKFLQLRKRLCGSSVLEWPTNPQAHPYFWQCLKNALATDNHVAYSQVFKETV
Method: as §1

For `CCCCNc1nc(N)ncc1CCc1ccccc1.Cl` [Example 2], the “hTLR8 wt (LEC)” value [1] was 6.5 and the “hTLR7 wt (LEC)” value [2] was 6.7.

`CCCCNc1nc(N)ncc1CCc1ccc2ccccc2n1.Cl` [Example 7] was tested, and the “hTLR8 wt (LEC)” value [1] was 1.2 and the “hTLR7 wt (LEC)” value [2] was 0.5.

`CCCCNc1nc(N)ncc1CC.Cl` [Example 1] was tested, and the “hTLR8 wt (LEC)” value [1] was 1.3 and the “hTLR7 wt (LEC)” value [2] was 2.4.

`CCCCNc1nc(N)ncc1CCc1ccccn1.Cl` [Example 6] was tested, and the “hTLR8 wt (LEC)” value [1] was 1.6 and the “hTLR7 wt (LEC)” value [2] was 0.6.

For `CCCCNc1nc(N)ncc1CCc1cccnc1.Cl` [Example 5], the “hTLR8 wt (LEC)” value [1] was 1.4 and the “hTLR7 wt (LEC)” value [2] was 1.2.

For `CCCCNc1nc(N)ncc1CCc1cccs1.Cl` [Example 8], the “hTLR8 wt (LEC)” value [1] was 3.6 and the “hTLR7 wt (LEC)” value [2] was 8.1.

In the case of `CCCCNc1nc(N)ncc1CCc1ccccc1OC.Cl` [Example 4], the “hTLR8 wt (LEC)” value [1] is reported as 13 and the “hTLR7 wt (LEC)” value [2] is reported as 5.

In the case of `CCCCNc1nc(N)ncc1CCc1ccc(OC)cc1OC.Cl` [Example 3], the “hTLR8 wt (LEC)” value [1] is reported as 12 and the “hTLR7 wt (LEC)” value [2] is reported as 2.4.
